Values quoted from earlier work as cited in the PKSmart pharmacokinetics tables (Seal et al. 2025).

Experiment: not given per row; by the article one of three: Lombardo et al. 2013, J Clin Pharmacol 53:178, doi 10.1177/0091270012440282; 'New Drugs at FDA', novel drug approvals for 2021 and 2022 (the article's reference 43); Yap, Li, Chen 2006, J Mol Graph Model 24:383, doi 10.1016
Conditions: human; in vivo

Row | Compound | clearance | Vd | half-life
1 | NC(=O)CN1CCCC1=O | 1.3 mL/min/kg |  | 
2 | COc1ccc(OC)c(Cc2cnc3nc(N)nc(N)c3c2C)c1 | 2.21 mL/min/kg |  | 
3 | CC(C)NC[C@@H](O)c1ccc(NS(C)(=O)=O)cc1 | 2.14 mL/min/kg |  | 
4 | CC(C)NC[C@@H](O)COc1ccc(CCOCC2CC2)cc1 | 4.7 mL/min/kg |  | 
5 | C=CC[C@]1([C@H](C)C#CCC)C(=O)NC(=O)N(C)C1=O | 13.3 mL/min/kg |  | 
6 | C[C@@H](CN(C)C)CN1c2ccccc2CCc2ccccc21 | 15.9 mL/min/kg |  | 
7 | CC(CO)(CO)NCc1cc2c3ccccc3ccc2c2ccccc12 | 8.44 mL/min/kg |  | 
8 | CC(=O)N1CCN(c2ccc(OC[C@@H]3CO[C@](Cn4ccnc4)(c4ccc(Cl)cc4Cl)O3)cc2)CC1 | 8.4 mL/min/kg |  | 
9 | CCN1CCN(c2ccc(Nc3cc(N(C)C(=O)Nc4c(Cl)c(OC)cc(OC)c4Cl)ncn3)cc2)CC1 | 9.19 mL/min/kg | 26.7 L/kg | 33.5 h
10 | COc1ccc2c(c1)N[C@@H]([S@@+](O)Cc1ncc(C)c(OC)c1C)N2 | 3.81 mL/min/kg |  | 
11 | COc1ccc2c3c1O[C@@H]1[C@@H](O)C=C[C@@H]4[C@H](C2)N(C)CC[C@]341 | 11 mL/min/kg |  | 
12 | CC(=O)OCC1=C(C(=O)O)N2C(=O)C(NC(=O)CSc3ccncc3)[C@@H]2SC1 (some centres not stated) | 6.36 mL/min/kg |  | 
13 | CCCN[C@@H]1CCc2nc(N)sc2C1 | 8.2 mL/min/kg |  | 
14 | CCOC(=O)C(CCc1ccccc1)NC(C)C(=O)N1Cc2ccccc2CC1C(=O)O (configuration not stated) | 26.4 mL/min/kg |  | 
15 | CCOc1ncc(C)c2c1[C@H](c1ccc(C#N)cc1OC)C(C(N)=O)C(C)=N2 (some centres not stated) | 6.94 mL/min/kg | 0.88 L/kg | 2.5 h
16 | OC[C@H]1O[C@@H](n2cnc3c2N=CNC[C@@H]3O)CC1O (some centres not stated) | 1.68 mL/min/kg |  | 
17 | CC[C@H](OC(C)=O)C(C[C@@H](C)N(C)C)(c1ccccc1)c1ccccc1 | 4.09 mL/min/kg |  | 
18 | NC(C(=O)NC1C(=O)N2C(C(=O)O)=C(Cl)CC[C@@H]12)c1ccccc1 (some centres not stated) | 4.45 mL/min/kg |  | 
19 | COC[C@H]1CN=C(c2ccccc2Cl)c2cc(Br)ccc2N1C | 11.1 mL/min/kg |  | 
20 | CCN(CC)C(=O)N[C@H]1C[C@@H]2c3cccc4[nH]cc(c34)C[C@H]2N(C)C1 | 16 mL/min/kg |  | 
21 | CC(C)(Oc1ccc(CCNC(=O)c2ccc(Cl)cc2)cc1)C(=O)O | 1.67 mL/min/kg |  | 

Row | Compound | clearance | Vd | half-life
22 | Nc1nc(=O)c2c([nH]1)N[C@@H]1O[C@@H]3COP(=O)(O)O[C@@H]3C(O)(O)[C@@H]1N2 | 3.02 mL/min/kg | 0.3 L/kg | 1.45 h
23 | C[C@@H]1[C@H](c2c(F)ccc(F)c2F)CC(NC(=O)c2cnc3c(c2)C[C@@]2(C3)C(=O)Nc3ncccc32)C(=O)N1CC(F)(F)F (some centres not stated) | 5.28 mL/min/kg | 4.87 L/kg | 11 h
24 | CN1CCN(/C=C2/N=C3CN=C(c4ccccc4Cl)c4cc([N+](=O)[O-])ccc4N3C2=O)CC1 | 5.09 mL/min/kg |  | 
25 | CNCc1cc(-c2ccccc2F)n(S(=O)(=O)c2cccnc2)c1 | 22.6 mL/min/kg | 13 L/kg | 6.8 h
26 | CCOC(=O)NNc1ccc(N(CC)C[C@@H](C)O)nn1 | 3.79 mL/min/kg |  | 
27 | O=C(Cn1ccnc1[N+](=O)[O-])NCCO | 1.73 mL/min/kg |  | 
28 | CCC1(CCC(C)C)C(=O)NC(=O)NC1=O | 0.35 mL/min/kg |  | 
29 | NC(=O)c1ncn([C@H]2O[C@H](CO)[C@@H](O)[C@@H]2O)c1N | 41.7 mL/min/kg |  | 
30 | CCC1=C(C)CN(C(=O)NCCc2ccc(S(=O)(=O)NC(=O)NC3CCC(C)CC3)cc2)C1=O (configuration not stated) | 0.76 mL/min/kg |  | 
31 | Nc1nnc(-c2cccc(Cl)c2Cl)c(N)n1 | 0.51 mL/min/kg |  | 
32 | C[C@@H](CCc1ccc(O)cc1)NCCc1ccc(O)c(O)c1 | 59 mL/min/kg |  | 
33 | O[C@@](CCN1CCCC1)(c1ccccc1)C1CCCCC1 | 0.97 mL/min/kg |  | 
34 | CC(NC(C)(C)C)C(=O)c1cccc(Cl)c1 (configuration not stated) | 36 mL/min/kg |  | 
35 | CC(C)(C)NC[C@@H](O)COc1nsnc1N1CCOCC1 | 8.1 mL/min/kg |  | 
36 | O=C(O)CN(CCN(CC(=O)O)CC(=O)O)CC(=O)O | 1.09 mL/min/kg |  | 
37 | C[C@@H]1CCC[C@@H](C)N1CCC[C@@](O)(c1ccccc1)c1ccccn1 | 2.34 mL/min/kg |  | 
38 | OC[C@H]1CC[C@@H](n2cnc3c(O)ncnc32)O1 | 15.2 mL/min/kg |  | 
39 | COCC1=C(C(=O)O)N2C(=O)C(=NC(=O)C(NOC)c3csc(N)n3)[C@H]2SC1 (some centres not stated) | 2.38 mL/min/kg |  | 
40 | C[C@H](CN1CCN(CCOCCO)CC1)CN1c2ccccc2Sc2ccccc21 | 17.5 mL/min/kg |  | 
41 | C=c1c(N)c(O)c2c(c1O)N1C[C@@H]3N[C@@H]3[C@@]1(OC)C=2COC(N)=O | 8.23 mL/min/kg |  | 
42 | NC[C@H](CC(=O)O)c1ccc(Cl)cc1 | 2.72 mL/min/kg |  | 

Same assay, conditions: human; plasma

Row | Compound | fraction unbound
43 | C[C@H]1CO[C@@H]2Cn3cc(C(=O)NCc4ccc(F)cc4F)c(=O)c(O)c3C(=O)N12 | 0.48
44 | Cc1cc2c(s1)Nc1ccccc1N=C2N1CCN(C)CC1 | 0.07
45 | CC(C)CC(NC(=O)C(Cc1ccccc1)NC(=O)C(N)Cc1ccccc1)C(=O)NC(CCCCN)C(=O)N1CCC(N)(C(=O)O)CC1 (configuration not stated) | 0.75
46 | C=CC(=O)Nc1cc(Nc2ncc(C(=O)OC(C)C)c(-c3cn(C)c4ccccc34)n2)c(OC)cc1N(C)CCN(C)C | 0.01
47 | C[C@]12CC[C@@H]3c4ccc(O)cc4CC[C@H]3[C@@H]1[C@@H](O)[C@@H](O)[C@@H]2O | 0.52
48 | CC(C)Nc1nc2cc(Cl)c(Cl)cc2n1[C@H]1O[C@@H](CO)[C@H](O)[C@@H]1O | 0.02
49 | CCN1CCN(c2ccc(Nc3cc(N(C)C(=O)Nc4c(Cl)c(OC)cc(OC)c4Cl)ncn3)cc2)CC1 | 0.03
50 | CCOc1ncc(C)c2c1[C@H](c1ccc(C#N)cc1OC)C(C(N)=O)C(C)=N2 (some centres not stated) | 0.08
51 | C[C@@H]1[C@H](c2c(F)ccc(F)c2F)CC(NC(=O)c2cnc3c(c2)C[C@@]2(C3)C(=O)Nc3ncccc32)C(=O)N1CC(F)(F)F (some centres not stated) | 0.05
52 | CNCc1cc(-c2ccccc2F)n(S(=O)(=O)c2cccnc2)c1 | 0.14
